US5310728A, “Method for treating corneal endothelial wounds” (Chiron Ophthalmics, Inc., priority 1992, dated 1994)
Entries after “also recorded” stand apart in the source; their conditions may differ.

Assays:
[1] = system: bovine corneal endothelial cells (BCEC); assay: Stimulation of BCEC DNA synthesis by recombinant peptide growth factors (tritiated thymidine); type: cell-based; conditions: for Stimulation of DNA synthesis of BCEC (in words): serum-free CDM, FIG. 5; for Relative potency as mitogen for BCEC (in words): absence of other added serum components, ten peptide growth factors compared, EGF first, TGF-α second
Description: Pure cultures of BCEC were established from freshly obtained cow eyes by trypsin treatment of the endothelial surface. Early passage cultures were trypsinized and seeded into 24 well plates as described above. After the cells had been synchronized by serum deprivation, BCEC were cultured in CDM containing tritiated thymidine and solutions of peptide growth factors produced by recombinant DNA technology. Radioactivity incorporated into DNA was measured as described previously.

fibroblasts = conditions: in vitro; Haigler & Carpenter 1980; cited from earlier work
[2] = system: endothelial cell division; assay: Intraocular injection of TGF-α solution in a patient with endothelium failure; type: in vivo; conditions: 100 μg/ml in buffered saline, 0.1 ml per injection into the anterior chamber, single or series
Description: A patient is diagnosed as requiring a corneal implant due to endothelium failure as a result of such conditions as Fuch's dystrophy or a marginal endothelial count either prior to or after cataract surgery. As an alternative to transplant surgery, the patient undergoes a single or series of intraocular injections of a solution of TGF-α in buffered saline. The concentration of the TFG-α is 100 μg/ml and 0.1 ml of solution are injected into the anterior chamber per injection.

Substance | Stimulation of DNA synthesis of BCEC (in words) [1] | Minimum exposure time to induce fibroblasts to divide (fibroblasts) | Relative potency as mitogen for BCEC (in words) [1] | Effect of injections on endothelial cell division [2]
multiplication stimulating activity | failed to stimulate DNA synthesis | – | – | –
nerve growth factor | failed to stimulate DNA synthesis | – | – | –
epidermal growth factor [EGF] | – | ≥ 6 h | second only to EGF in potency | –
platelet-derived growth factor | failed to stimulate DNA synthesis | – | – | –
transforming growth factor alpha [TGF-α] | – | – | very potent mitogen for BCEC; also recorded: potent mitogen | enhance endothelial cell division
